Test results published in PMC6904270, “A High-Throughput Assay for Monitoring Ubiquitination in Real Time” (Frontiers in Chemistry, 2019).
pIC50: −log10 of the molar value.

Target: T1, E1 ubiquitin-activating enzyme (UBE1) (Homo sapiens, UniProt P22314)
T1 construct: gene UBA1
T1 sequence (P22314 2-1058): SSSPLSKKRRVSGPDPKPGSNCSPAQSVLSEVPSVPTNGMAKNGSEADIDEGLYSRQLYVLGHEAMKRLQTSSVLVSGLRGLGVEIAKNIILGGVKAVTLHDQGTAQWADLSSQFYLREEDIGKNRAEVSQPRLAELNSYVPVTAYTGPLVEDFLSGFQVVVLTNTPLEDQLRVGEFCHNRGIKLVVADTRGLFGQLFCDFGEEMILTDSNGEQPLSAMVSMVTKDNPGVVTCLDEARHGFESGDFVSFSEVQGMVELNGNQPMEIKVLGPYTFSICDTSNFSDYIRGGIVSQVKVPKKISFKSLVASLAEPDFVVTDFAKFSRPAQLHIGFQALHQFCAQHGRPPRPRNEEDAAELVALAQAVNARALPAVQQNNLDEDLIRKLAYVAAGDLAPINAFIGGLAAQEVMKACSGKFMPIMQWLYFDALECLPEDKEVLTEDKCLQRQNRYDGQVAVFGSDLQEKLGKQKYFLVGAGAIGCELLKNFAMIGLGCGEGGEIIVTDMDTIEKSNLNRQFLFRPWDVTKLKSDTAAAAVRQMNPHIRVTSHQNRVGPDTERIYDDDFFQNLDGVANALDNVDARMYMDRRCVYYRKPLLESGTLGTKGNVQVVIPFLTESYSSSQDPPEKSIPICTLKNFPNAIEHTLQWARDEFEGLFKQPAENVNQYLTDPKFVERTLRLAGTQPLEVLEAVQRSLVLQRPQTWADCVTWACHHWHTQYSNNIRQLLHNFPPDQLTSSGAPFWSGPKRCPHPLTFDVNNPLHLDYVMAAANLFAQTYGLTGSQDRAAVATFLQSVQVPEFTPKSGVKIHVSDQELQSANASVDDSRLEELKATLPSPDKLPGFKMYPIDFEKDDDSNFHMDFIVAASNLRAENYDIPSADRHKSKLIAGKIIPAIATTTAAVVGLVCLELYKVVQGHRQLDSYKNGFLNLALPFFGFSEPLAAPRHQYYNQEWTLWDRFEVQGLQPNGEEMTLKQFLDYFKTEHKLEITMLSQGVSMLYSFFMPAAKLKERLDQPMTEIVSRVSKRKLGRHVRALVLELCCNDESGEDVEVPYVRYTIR
Experiment: fluorescence polarization of E1~TAMRA-Ub complex formation with purified E1 (UbiReal), endpoint dose-response
Format: biochemical

- pIC50: 5.04
Compound: CCOC(=O)c1ccc(N2NC(=O)C(=Cc3ccc([N+](=O)[O-])o3)C2=O)cc1 [PYR-41]
